Experimental findings from PubChem BioAssay (NCI) are described below.

Structures are written as SMILES. Where “and” joins values, the source holds several entries; their conditions need not be identical. Equal entries are not always repeated.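 Interpolation was linear, between the two tested concentrations surrounding the appropriate level; five concentrations were tested over 48 hours in 96-well plates. At the GI50, growth is halved. Definition used: TGI = concentration required for complete inhibition of growth.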 Bounds are passed on as bounds.

What all share (test): NCI anticancer screen, dose series, 48 h
Test [1] concerns K-562 leukemia.
Test [2] concerns UACC-62 melanoma.
In test [3] the test system is NCI-H226 lung.
Test [4] has as its system NCI-H23 lung.
Test [5] relates to DU-145 prostate.
Test [6] has as its system PC-3 prostate.
Test [7] concerns SR leukemia.
Test [8] has as its system HCT-116 colon.
Test [9] has as its system HL-60(TB) leukemia.
Test [10] concerns UACC-257 melanoma.

As for `Cc1ccc(C2NC(=S)N3C(c4ccc(C)cc4)NC(=S)N23)cc1` (centres undefined), the GI50 was 1.01 µM in test [1]; 1.88 µM in test [2]; 6.85 µM in test [3]; 5.29 µM in [4]; 3.62 µM in test [5]; 3.81 µM in test [6]. The GI50 in test [7] was 0.491 µM; in test [8] it was 4 µM; in test [9] it was 1.88 µM; in test [10] it was 10.3 µM. Moreover, the TGI in test [1] came out at 12 µM; in [2], 11.7 µM; in test [3], 29 µM; in test [4], 17.9 µM; in test [5], 13.6 µM; in [6], 16.9 µM. In addition, the TGI in test [7] is 3.55 µM; in test [8], 13.4 µM; in test [9], 5.67 µM; in test [10], 22.6 µM.

Consider `NC(Cc1ccc(O)cc1)C(=O)N/N=C/c1ccc(N(CCCl)CCCl)cc1` (centres undefined), for which the GI50 was 3.59 µM in test [1]; 2.69 µM in [2]; 3.01 µM in [3]; 12.3 µM in test [4]; 5.19 µM in test [5]; 11.7 µM in [6]. The GI50 in test [7] was 0.189 µM; in [8] it was 21.8 µM; in test [9], 0.0757 µM; in test [10] it was 15.6 µM. Further, the TGI was over 100 µM in [1]; 27 µM in test [2]; 31.6 µM in test [3]; over 100 µM in test [4]; 34.7 µM in test [5]; over 100 µM in test [6]. The TGI in [7] was 20.4 µM; in [8], over 100 µM; in [9] it was 14.6 µM; in [10], 98.5 µM.

Regarding `COc1ccc(/C=C/c2ccnc3ccccc23)cc1`, the TGI in test [1] worked out at 23.2 µM; in [2], 29.2 µM; in test [3], 38.2 µM; in [4], 30.6 µM; in [5] it was 28 µM; in [6], 39.7 µM. Moreover, the TGI in test [7] was found to be 61.1 µM; in [8], 29.1 µM; in test [9], 20.1 µM; in test [10], 31.4 µM.

For `O=c1c(-c2ccc3c(c2)OCO3)coc2c(CO)c(O)ccc12`, the GI50 was 2.87 µM in [1]; 1.66 µM in [2]; 1.81 µM in test [3]; 4.87 µM in test [4]; 2.41 µM in [5]; 1.54 µM in test [6]. Besides, the GI50 was 2.65 µM in test [7], 2 µM in test [8], 2.25 µM in test [9] and 2.59 µM in [10]. Further, the TGI in test [1] is over 100 µM; in [2], 3.59 µM; in test [3], 4.46 µM; in test [4] it was 24.5 µM; in test [5], 7.06 µM; in test [6] it was 4.03 µM. Moreover, the TGI is over 100 µM in test [7], 4.94 µM in test [8], 5.9 µM in test [9] and 7.46 µM in test [10].

`NS(=O)(=O)c1cccc(-c2cc3ccncc3cc2OCc2ccccc2)c1`: the GI50 in test [1] was 6.61 µM; in [2] it was 9.76 µM; in [3], 9.03 µM; in [4] it was over 18.4 µM; in test [5], 17.1 µM; in [6], 10.8 µM. Also, the GI50 was 11.6 µM in [7], 10.1 µM in test [8], 4.64 µM in test [9] and 7.76 µM in test [10]. Besides, the TGI in [1], in test [2], in test [3], in [4], in test [5] and in [6] was over 25 µM each time. In addition, the TGI is over 25 µM in test [7], over 25 µM in test [8], 13.5 µM in [9] and over 25 µM in [10].

As to `CS(=O)/C(C#N)=C\C=C\c1cccc(Cl)c1` (centres undefined), the GI50 in [1] was 2.51 µM; in test [2], 1.18 µM; in test [3] it was 5.02 µM; in test [4] it was 1.63 µM; in [5], 1.45 µM; in [6], 2.68 µM. Further, the GI50 in [7] is 0.636 µM; in [8], 1.12 µM; in test [9], 2.38 µM; in test [10], 2.41 µM. Further, the TGI in test [1] is over 100 µM; in [2], 3.54 µM; in [3] it was 20.3 µM; in test [4], 4.96 µM; in test [5], 3.32 µM; in test [6], 12.8 µM. The TGI was over 100 µM in test [7], 4.73 µM in test [8], 7.61 µM in [9] and 12.2 µM in test [10].

As for `O=C1c2cccc3cccc(c23)C(=O)N1CC#Cc1ccc2c3c(cccc13)C(=O)N(CCN1CCNCC1)C2=O`, the GI50 in [1] was 1.16 µM; in [2], 1.88 µM; in test [3], 20.3 µM; in test [4] it was 2.38 µM; in test [5] it was 2.06 µM; in test [6] it was 3.22 µM. Besides, the GI50 is 1.98 µM in test [7], 2.12 µM in [8], 4.12 µM in [9] and 18.5 µM in [10]. Moreover, the TGI came to 2.75 µM in test [1]; 4.44 µM in test [2]; 52.3 µM in test [3]; 5.74 µM in [4]; 4.12 µM in [5]; 11.6 µM in [6]. Besides, the TGI in [7] is 4.78 µM; in test [8], 4.79 µM; in test [9], over 100 µM; in [10] it was 38.1 µM.

On to `COc1ccc(-c2nnc(Nc3nc(O)c(C4=c5cc(OC(F)(F)F)ccc5=NC4=O)s3)o2)cc1`, for which the GI50 in [1] was 14.4 µM; in test [2], 15.1 µM; in [3], 17.4 µM; in test [4] it was 14.1 µM; in [5], 23.4 µM; in test [6], 19.9 µM. The GI50 was 9 µM in [7], 12.5 µM in [8], 26.6 µM in test [9] and 13.2 µM in test [10]. The TGI in test [1] amounted to 30.4 µM; in [2] it was 29.5 µM; in [3], 38.1 µM; in test [4], 30.6 µM; in [5], 87.1 µM; in test [6], 57.5 µM. Further, the TGI in [7] was 34.2 µM; in [8], 25.4 µM; in test [9] it was 47.7 µM; in test [10], 35.9 µM.

Regarding `O=C1c2ccccc2C(=O)c2c(NCCNCCO)ccc(NCCNCCO)c21`, the GI50 in test [1] was 2.47 µM and 2.08 µM and 2.38 µM; in test [2] it was 1.03 µM and 1.2 µM and 1.06 µM; in test [3] it was 0.232 µM and 0.281 µM and 0.47 µM; in [4], 0.94 µM and 1.43 µM and 1.22 µM; in [5], 0.718 µM and 1.41 µM and 1.29 µM; in [6], 2.27 µM and 2.34 µM and 1.67 µM. For the same compound, the GI50 was 1.49 µM and 0.492 µM and 0.267 µM in test [7]; 0.715 µM and 0.908 µM and 0.934 µM in test [8]; 0.274 µM and 0.13 µM and 0.456 µM in [9]; 4.72 µM and 6.86 µM and 6.63 µM in test [10]. Also, the TGI in [1] was > 32.1 µM and 33.3 µM and 11.4 µM; in [2] it was 4.25 µM and 4.33 µM and 2.97 µM; in test [3], 2.24 µM and 3.35 µM and 5.4 µM; in [4] it was 4.54 µM and 8.5 µM and 5.81 µM; in [5] it was 4.89 µM and 8.28 µM and 8.69 µM; in test [6] it was 17.8 µM and 13.4 µM and 7.54 µM. The TGI in test [7] is 13.2 µM and 36.8 µM; in test [8] it was 6.79 µM and 6.81 µM and 11.2 µM; in [9] it was 8.67 µM and 10.6 µM; in test [10], 14.2 µM and 27.9 µM and 24.7 µM.

With `Nc1nc2c(c(=O)[nH]1)N=C(COP(=O)(O)OP(=O)(O)O)CN2`, the TGI in test [1], in test [2], in test [3], in [4], in test [5] and in test [6] was over 100 µM in each case. The TGI in [7], in [8], in test [9] and in test [10] was over 100 µM throughout.

On to `Cc1ccn2c(-c3csc(Nc4cccc(O)c4)n3)c(C)nc2c1`, for which the GI50 was 0.196 µM in test [1]; 0.712 µM in test [2]; 14.1 µM in test [3]; 1.01 µM in test [4]; 0.787 µM in test [5]; 0.609 µM in [6]. Besides, the GI50 in test [7] is 0.2 µM; in test [8], 0.397 µM; in test [9], 0.343 µM; in test [10], 3.48 µM. Moreover, the TGI in [1] is over 38.2 µM; in test [2], 19.2 µM; in [3], 57.4 µM; in test [4], 19.7 µM; in [5] it was 25.3 µM; in test [6] it was 29.6 µM. For the same compound, the TGI in [8] was 15.1 µM; in test [9], 22.1 µM; in test [10] it was 19.6 µM.

On to `O=C(NCCSSCCNC(=O)/C(Cc1ccc(O)c(Br)c1)=N/O)/C(Cc1ccc(O)c(Br)c1)=N/O`, for which the TGI in test [1] is over 50 µM; in test [2], 7.32 µM; in test [3] it was 41.9 µM; in test [4], 13.1 µM; in [5], 12.7 µM; in test [6] it was 8.21 µM. The TGI in test [7] was 7.08 µM; in [8] it was 5.98 µM; in test [9], over 22.6 µM; in test [10] it was over 34.6 µM.
